Laboratory results: patent US20160244437A1, “SUBSTITUTED PHENYLALANINE DERIVATIVES” (BAYER PHARMA AKTIENGESELLSCHAFT, priority 2013, published 2016)
Counter-ions that a name gives are not always drawn.

Each compound was assayed against T1, human factor XIa (Homo sapiens, UniProt P03951) (assay: Measurement of FXIa inhibition (fluorogenic peptide substrate Boc-Glu(OBzl)-Ala-Arg-AMC)). Conditions: factor XIa from Kordia 0.45 nM, 15 min pre-incubation, 30 min at 22° C., fluorescence.
T1 construct: purchased Kordia
T1 sequence (P03951 388-625 limits assumed): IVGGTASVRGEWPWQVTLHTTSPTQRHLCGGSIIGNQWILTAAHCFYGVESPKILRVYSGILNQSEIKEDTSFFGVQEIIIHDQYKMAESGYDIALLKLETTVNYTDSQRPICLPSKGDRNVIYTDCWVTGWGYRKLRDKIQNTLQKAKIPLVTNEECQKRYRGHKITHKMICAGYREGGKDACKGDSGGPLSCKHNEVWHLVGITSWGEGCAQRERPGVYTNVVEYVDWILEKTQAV
T1 sequence (P03951 19-387 partner limits assumed): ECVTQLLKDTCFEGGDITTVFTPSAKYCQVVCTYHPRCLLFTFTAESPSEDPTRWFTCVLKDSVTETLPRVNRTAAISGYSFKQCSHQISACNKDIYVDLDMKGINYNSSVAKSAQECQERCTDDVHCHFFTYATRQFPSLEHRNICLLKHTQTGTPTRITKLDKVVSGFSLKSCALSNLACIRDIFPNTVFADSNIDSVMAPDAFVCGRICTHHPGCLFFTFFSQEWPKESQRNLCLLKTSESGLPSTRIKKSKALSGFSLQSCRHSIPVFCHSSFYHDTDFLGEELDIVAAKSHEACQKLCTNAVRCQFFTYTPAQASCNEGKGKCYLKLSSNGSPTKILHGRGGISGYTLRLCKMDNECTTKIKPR
Format: biochemical
Method: The factor XIa inhibition of the substances according to the invention is determined using a biochemical test system which utilizes the reaction of a peptidic factor XIa substrate to determine the enzymatic activity of human factor XIa. Here, factor XIa cleaves from the peptic factor XIa substrate the C-terminal aminomethylcoumarin (AMC), the fluorescence of which is measured. The determinations are carried out in microtitre plates.
Test substances are dissolved in dimethyl sulphoxide and serially diluted in dimethyl sulphoxide (3000 μM to 0.0078 μM; resulting final concentrations in the test: 50 μM to 0.00013 μM). In each case 1 μl of the diluted substance solutions is placed into the wells of white microtitre plates from Greiner (384 wells). Subsequently, the following are added successively: 20 μl of assay buffer (50 mmol/l Tris buffer pH 7.4; 100 mmol/l sodium chloride; 5 mmol/l calcium chloride; 0.1% bovine serum albumin) and 20 μl of factor XIa from Kordia (0.45 nM in assay buffer). After 15 min of incubation, the enzyme reaction is started by addition of 20 μl of the factor XIa substrate Boc-Glu(OBzl)-Ala-Arg-AMC dissolved in assay buffer (10 μM in assay buffer) from Bachem, the mixture is incubated at room temperature (22° C.) for 30 min and fluorescence is then measured (excitation: 360 nm, emission: 460 nm). The measured emissions of the test batches with test substance are compared to those of control batches without test substance (only dimethyl sulphoxide instead of test substance in dimethyl sulphoxide), and IC50 values are calculated from the concentration/activity relationships.
With `CN1CCN(c2ncc(-c3cccc(C[C@H](NC(=O)[C@H]4CC[C@H](CN)CC4)C(=O)Nc4ccc(-c5nnn[nH]5)cc4)c3)cn2)CC1` [Example 69, N-alpha-{[trans-4-(Aminomethyl)cyclohexyl]carbonyl}-3-[2-(4-methylpiperazin-1-yl)pyrimidin-5-yl]-N-[4-(1H-tetrazol-5-yl)phenyl]-L-phenylalaninamide hydrochloride] the IC50 was 4.9 nM.
Compound `CN(C)c1ccc(-c2cccc(C[C@H](NC(=O)[C@H]3CC[C@H](CN)CC3)C(=O)Nc3ccc(-c4nnn[nH]4)cc3)c2)cn1` [Example 71, N-alpha-{[trans-4-(Aminomethyl)cyclohexyl]carbonyl}-3-[6-(dimethylamino)pyridin-3-yl]-N-[4-(1H-tetrazol-5-yl)phenyl]-L-phenylalaninamide hydrochloride] has an IC50 of 3.1 nM.
Compound `NCCNC(=O)c1ccc(-c2cccc(C[C@H](NC(=O)[C@H]3CC[C@H](CN)CC3)C(=O)Nc3ccc4cn[nH]c4c3)c2)cc1` [Example 50, N-(2-Aminoethyl)-3′-[(2S)-2-({[trans-4-(aminomethyl)cyclohexyl]carbonyl}amino)-3-(1H-indazol-6-ylamino)-3-oxopropyl]biphenyl-4-carboxamide hydrochloride] has an IC50 of 55 nM.
In the case of `COCc1nnc(-c2ccc(NC(=O)[C@H](Cc3cccc(-c4ccccc4C(C)C)c3)NC(=O)[C@H]3CC[C@H](CN)CC3)cc2)[nH]1` [Example 104, trans-4-(Aminomethyl)-N-[(2S)-3-(2′-isopropylbiphenyl-3-yl)-1-({4-[3-(methoxymethyl)-4H-1,2,4-triazol-5-yl]phenyl}amino)-1-oxopropan-2-yl]cyclohexanecarboxamide hydrochloride], the IC50 is reported as 8.6 nM.
With `NC[C@H]1CC[C@H](C(=O)N[C@@H](Cc2cccc(-c3cnc(N4CCOCC4)nc3)c2)C(=O)Nc2ccc(-c3n[nH]c(=O)[nH]3)cc2)CC1` [Example 88, N-alpha-{[trans-4-(Aminomethyl)cyclohexyl]carbonyl}-3-[2-(morpholin-4-yl)pyrimidin-5-yl]-N-[4-(5-oxo-4,5-dihydro-1H-1,2,4-triazol-3-yl)phenyl]-L-phenylalaninamide hydrochloride] the IC50 was 29 nM.
In the case of `Cc1cc(C(=O)NC2CCNCC2)ccc1-c1cccc(C[C@H](NC(=O)[C@H]2CC[C@H](CN)CC2)C(=O)Nc2ccc(-c3nnn[nH]3)cc2)c1` [Example 15, 3′-[(2S)-2-({[trans-4-(Aminomethyl)cyclohexyl]carbonyl}amino)-3-oxo-3-{[4-(1H-tetrazol-5-yl)phenyl]amino}propyl]-2-methyl-N-(piperidin-4-yl)biphenyl-4-carboxamide hydrochloride], the IC50 is reported as 7.7 nM.
`NC[C@H]1CC[C@H](C(=O)N[C@@H](Cc2cccc(-c3cnc(O)nc3)c2)C(=O)Nc2ccc(-c3nnn[nH]3)cc2)CC1` [Example 99, N-alpha-{[trans-4-(Aminomethyl)cyclohexyl]carbonyl}-3-(2-hydroxypyrimidin-5-yl)-N-[4-(1H-tetrazol-5-yl)phenyl]-L-phenylalaninamide hydrochloride] showed an IC50 of 8.9 nM.
`NC[C@H]1CC[C@H](C(=O)N[C@@H](Cc2cccc(-c3ccc(C(=O)N4CCOCC4)cc3)c2)C(=O)Nc2ccc(-c3nnc(Cl)[nH]3)cc2)CC1` [Example 26, trans-4-(Aminomethyl)-N-{(2S)-1-{[4-(3-chloro-4H-1,2,4-triazol-5-yl)phenyl]amino}-3-[4′-(morpholin-4-ylcarbonyl)biphenyl-3-yl]-1-oxopropan-2-yl}cyclohexanecarboxamide hydrochloride] gave an IC50 of 4.5 nM.
`NC[C@H]1CC[C@H](C(=O)N[C@@H](Cc2cccc(-c3cnc(N4CCOCC4)nc3)c2)C(=O)Nc2ccc(-c3nnn[nH]3)cc2)CC1` [Example 74, N-alpha-{[trans-4-(Aminomethyl)cyclohexyl]carbonyl}-3-[2-(morpholin-4-yl)pyrimidin-5-yl]-N-[4-(1H-tetrazol-5-yl)phenyl]-L-phenylalaninamide hydrochloride] gave an IC50 of 2.1 nM.
Compound `Cc1ccc(S(=O)(=O)N2CCOCC2)cc1-c1cccc(C[C@H](NC(=O)[C@H]2CC[C@H](CN)CC2)C(=O)Nc2ccc(-c3nnn[nH]3)cc2)c1` [Example 3, trans-4-(Aminomethyl)-N-[(2S)-3-[2′-methyl-5′-(morpholin-4-ylsulphonyl)biphenyl-3-yl]-1-oxo-1-{[4-(1H-tetrazol-5-yl)phenyl]amino}propan-2-yl]cyclohexanecarboxamide hydrochloride] has an IC50 of 0.9 nM.
Compound `Cc1cc(C(=O)N[C@@H]2CCCNC2=O)ccc1-c1cccc(C[C@H](NC(=O)[C@H]2CC[C@H](CN)CC2)C(=O)Nc2ccc3nc(C(F)(F)C(F)(F)F)[nH]c3c2)c1` [Example 63, 3′-[(2S)-2-({[trans-4-(Aminomethyl)cyclohexyl]carbonyl}amino)-3-oxo-3-{[2-(pentafluoroethyl)-1H-benzimidazol-6-yl]amino}propyl]-2-methyl-N-[(3R)-2-oxopiperidin-3-yl]biphenyl-4-carboxamide hydrochloride] has an IC50 of 52 nM.
With `NC[C@H]1CC[C@H](C(=O)N[C@@H](Cc2cccc(-c3ccccc3C(F)(F)F)c2)C(=O)Nc2ccc(-c3nnn[nH]3)cc2)CC1` [Example 84, trans-4-(Aminomethyl)-N-{(25)-1-oxo-1-{[4-(1H-tetrazol-5-yl)phenyl]amino}-3-[2′-(trifluoromethyl)biphenyl-3-yl]propan-2-yl}cyclohexanecarboxamide hydrochloride] the IC50 was 3.1 nM.
For `Cc1ccc(C[C@H](NC(=O)C2CCC(CN)CC2)C(=O)Nc2ccc(-c3nnn[nH]3)cc2)cc1-c1cccc(C(=O)NC2C3CNCC32)c1` (stereo partly drawn) [Example 35, 5′-[(2S)-2-({[trans-4-(Aminomethyl)cyclohexyl]carbonyl}amino)-3-oxo-3-{[4-(1H-tetrazol-5-yl)phenyl]amino}propyl]-N-(3-azabicyclo[3.1.0]hex-6-yl)-2′-methylbiphenyl-3-carboxamide hydrochloride], the IC50 was 10 nM.
Work on `CN(C)c1ncc(-c2cccc(C[C@H](NC(=O)[C@H]3CC[C@H](CN)CC3)C(=O)Nc3ccc4[nH]c(=O)[nH]c4c3)c2)cn1` [Example 73, N-alpha-{[trans-4-(Aminomethyl)cyclohexyl]carbonyl}-3-[2-(dimethylamino)pyrimidin-5-yl]-N-(2-oxo-2,3-dihydro-1H-benzimidazol-5-yl)-L-phenylalaninamide hydrochloride] yielded an IC50 of 25 nM.
Compound `Cc1ccc(C[C@H](NC(=O)[C@H]2CC[C@H](CN)CC2)C(=O)Nc2ccc(-c3nnn[nH]3)cc2)cc1-c1cccc(C(=O)NCCOCCOCCO)c1` [Example 28, 5′-[(2S)-2-({[trans-4-(Aminomethyl)cyclohexyl]carbonyl}amino)-3-oxo-3-{[4-(1H-tetrazol-5-yl)phenyl]amino}propyl]-N-{2-[2-(2-hydroxyethoxy)ethoxy]ethyl}-2′-methylbiphenyl-3-carboxamide hydrochloride] has an IC50 of 5.2 nM.
`Cc1ccc(S(=O)(=O)N(C)C)cc1-c1cccc(C[C@H](NC(=O)[C@H]2CC[C@H](CN)CC2)C(=O)Nc2ccc(-c3noc(=O)[nH]3)cc2)c1` [Example 23, trans-4-(Aminomethyl)-N-[(2S)-3-[5′-(dimethylsulphamoyl)-2′-methylbiphenyl-3-yl]-1-oxo-1-{[4-(5-oxo-4,5-dihydro-1,2,4-oxadiazol-3-yl)phenyl]amino}propan-2-yl]cyclohexanecarboxamide hydrochloride] gave an IC50 of 3.6 nM.
